Experimental findings from ChEMBL document CHEMBL4765228, “Indole-like Trk receptor antagonists” (Eur J Med Chem, 2016) are described below.

Assay [1] deals with T1, High affinity nerve growth factor receptor (Homo sapiens, UniProt P04629). Put plainly: Inhibition of TrkA (unknown origin).
Assay [2] concerns the target T1, High affinity nerve growth factor receptor. Put plainly: Inhibition of GAL4 fused TrkA (unknown origin) expressed in PC12 cells transfected with pFA2-Elk plasmid and pFR-luciferase plasmid measured for 18 hrs by luciferase reporter gene assay. The assay is classed as cell-based, Rattus norvegicus, PC-12.
The target is the same in assay [3]. The assay can be described thus: Inhibition of GST-fused TrkA (unknown origin) expressed in SF9 cells using H2N-RRRAAAEEIYGEINH2 peptide as substrate preincubated with ATP and Mg and measured by microtiter plate reader analysis.

One may read the pIC50 as the negative decadic logarithm of the IC50, by convention in mol/L. The low end stands for a large IC50, the high end for a small IC50.

pIC50: −log10 of the molar value. Bounds are passed on as bounds.

T1 sequence (P04629 whole entry, the tested form may be a part): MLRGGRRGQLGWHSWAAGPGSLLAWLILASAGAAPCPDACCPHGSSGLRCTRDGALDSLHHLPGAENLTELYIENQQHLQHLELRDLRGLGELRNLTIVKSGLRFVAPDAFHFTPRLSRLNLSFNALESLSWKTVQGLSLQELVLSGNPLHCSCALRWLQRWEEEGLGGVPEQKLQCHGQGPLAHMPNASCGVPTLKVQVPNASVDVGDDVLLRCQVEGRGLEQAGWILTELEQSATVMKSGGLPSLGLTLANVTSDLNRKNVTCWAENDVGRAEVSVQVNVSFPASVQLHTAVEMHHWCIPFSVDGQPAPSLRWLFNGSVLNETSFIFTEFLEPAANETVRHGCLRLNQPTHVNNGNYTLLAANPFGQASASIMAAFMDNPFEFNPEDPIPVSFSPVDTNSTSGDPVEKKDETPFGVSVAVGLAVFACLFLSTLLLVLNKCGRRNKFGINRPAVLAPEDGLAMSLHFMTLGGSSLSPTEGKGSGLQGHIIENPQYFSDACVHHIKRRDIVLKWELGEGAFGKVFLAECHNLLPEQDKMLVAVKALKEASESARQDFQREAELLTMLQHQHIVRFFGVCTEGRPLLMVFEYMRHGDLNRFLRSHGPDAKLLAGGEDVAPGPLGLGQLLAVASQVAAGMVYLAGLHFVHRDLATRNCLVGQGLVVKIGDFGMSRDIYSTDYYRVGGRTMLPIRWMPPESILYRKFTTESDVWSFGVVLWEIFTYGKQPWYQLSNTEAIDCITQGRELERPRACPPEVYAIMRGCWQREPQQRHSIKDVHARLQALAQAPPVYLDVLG

Turning to `O=C1Nc2ccccc2/C1=C\c1c(Cl)[nH]c2ccccc12`, in assay [1], the pIC50 is below 5.00.

Take `Cc1[nH]c2ccccc2c1/C=C1\C(=O)Nc2ccccc21`: in assay [1], the negative logarithm of the IC50 (pIC50) is below 5.00.

Turning to `NS(=O)(=O)c1ccc2c(c1)/C(=C/c1c[nH]c3ccc(O)cc13)C(=O)N2`, the figures for the pIC50 in assay [2] and in assay [1] were 6.44 and 8.28, respectively.

In assay [3], `NS(=O)(=O)c1ccc(N/C=C2\C(=O)Nc3ccccc32)cc1` gave a pIC50 of 7.20.

Turning to `Cn1cc(/C=C2\C(=O)Nc3ccccc32)c2ccccc21`, the pIC50 in assay [2] is 6.00; in assay [1], 7.59.

As to `NS(=O)(=O)c1ccc2c(c1)/C(=C/c1c[nH]c3ccccc13)C(=O)N2`, the pIC50 in assay [2] was 6.47; in assay [1] it was 7.95.
